Where no end group is shown, it is not given here.

The subject of the first experiment is glycan-specific, HIV-1 gp120 NAb, 2G12. As to the kind of experiment: M13 Binding ELISA, assay control NAb 2G12. The conditions noted are these: control NAb 2G12 coated 1 μg/well; > 2.5E+9 = no binding.
As for “ALCLGPR (disulfide (positions not given here)) [Z13 PhD c7c-1]”, the “Binding Titer (M13/ml) 2G12” value is given as greater than 2.5E+9 M13/ml.

As to “DKWASFD (disulfide (positions not given here)) [2F5 PhD c7c-2]”, the “Binding Titer (M13/ml) 2G12” value is reported as greater than 2.5E+9 M13/ml.

Regarding DMRSIFHDNPFN [4E10 PhD 12–6], the “Binding Titer (M13/ml) 2G12” value is greater than 2.5E+9 M13/ml.

As to “ERMLFEW (disulfide (positions not given here)) [4E10 PhD c7c-2]”, the “Binding Titer (M13/ml) 2G12” value is greater than 2.5E+9 M13/ml.

On to GPILANYSDITN [Z13 PhD 12–3], for which the “Binding Titer (M13/ml) 2G12” value is greater than 2.5E+9 M13/ml.

For the substance GYWSDYWGMTTH [4E10 PhD 12–7], the “Binding Titer (M13/ml) 2G12” value is greater than 2.5E+9 M13/ml.

On to HNSQNLDRWAII [2F5 PhD 12–1], for which the “Binding Titer (M13/ml) 2G12” value is greater than 2.5E+9 M13/ml.

For the substance LPNWFNLSSNLM [4E10 PhD 12–11], the “Binding Titer (M13/ml) 2G12” value is on record as greater than 2.5E+9 M13/ml.

As to “MELDKWA (disulfide (positions not given here)) [2F5 PhD c7c-1]”, the “Binding Titer (M13/ml) 2G12” value was greater than 2.5E+9 M13/ml.

In the case of NFWELSKYLHMA [4E10 PhD 12–9], the “Binding Titer (M13/ml) 2G12” value was greater than 2.5E+9 M13/ml.

On to NWFDGTTTLWHR [4E10 PhD 12–4], for which the “Binding Titer (M13/ml) 2G12” value is recorded as greater than 2.5E+9 M13/ml.

For NWFDRSHTLFHS [4E10 PhD 12–3], the “Binding Titer (M13/ml) 2G12” value is on record as greater than 2.5E+9 M13/ml.

As to NWFNLTQTLMPR [4E10 PhD 12–1], the “Binding Titer (M13/ml) 2G12” value is greater than 2.5E+9 M13/ml.

On to “PFGFELW (disulfide (positions not given here)) [Z13 PhD c7c-2]”, for which the “Binding Titer (M13/ml) 2G12” value was greater than 2.5E+9 M13/ml.

As to QHWNYFDLSEQQ [Z13 PhD 12–2], the “Binding Titer (M13/ml) 2G12” value is reported as greater than 2.5E+9 M13/ml.

With QSYNWFDHTRWI [4E10 PhD 12–8], the “Binding Titer (M13/ml) 2G12” value is greater than 2.5E+9 M13/ml.

SEELDKWYNTLT [2F5 PhD 12–3]: the “Binding Titer (M13/ml) 2G12” value is listed as greater than 2.5E+9 M13/ml.

For the substance SEMDDKWAKMKI [2F5 PhD 12–2], the “Binding Titer (M13/ml) 2G12” value is recorded as greater than 2.5E+9 M13/ml.

In the case of SHTLNFLDLTST [Z13 PhD 12–1], the “Binding Titer (M13/ml) 2G12” value is greater than 2.5E+9 M13/ml.

As for “SIFDWPR (disulfide (positions not given here)) [4E10 PhD c7c-1]”, the “Binding Titer (M13/ml) 2G12” value is listed as greater than 2.5E+9 M13/ml.

For the substance SVSVGMKPSPRP [4E10 PhD 12–2], the “Binding Titer (M13/ml) 2G12” value is listed as greater than 2.5E+9 M13/ml.

As for “TLDIFRN (disulfide (positions not given here)) [4E10 PhD c7c-3]”, the “Binding Titer (M13/ml) 2G12” value is recorded as greater than 2.5E+9 M13/ml.

Take TNFFELTTKLHR [4E10 PhD 12–10]: the “Binding Titer (M13/ml) 2G12” value is recorded as greater than 2.5E+9 M13/ml.

As for YFFDRSS (disulfide) [4E10 PhD c7c-4], the “Binding Titer (M13/ml) 2G12” value is greater than 2.5E+9 M13/ml.

The test system of another experiment is HIV-1 PSVs. As to the kind of experiment: TZMbl neutralization assay of immunized mouse sera. The note with it: animals immunized with mimotopes alone; TZMbl and PBMC assays, Fig. 5.
Turning to GYWSDYWGMTTH [4E10 PhD 12–7], the “neutralizing responses of sera” value is listed as “detectable, low titer neutralizing responses”.

LPNWFNLSSNLM [4E10 PhD 12–11]: the “neutralizing responses of sera” value is on record as “detectable, low titer neutralizing responses”.
